US20200281209A1, “STABILIZED EMULSIONS” (Suncor Energy Inc., priority 2016, published 2020)
One block for each compound: values may come before it.

Test: Emulsification test after simulated long term storage at 50° C. (Testing Example 6)
Assay type: physicochemical
Details: for re-emulsification compared with composition with no biocide: after storage at 50° C. for 32 and 70 days
Description: Where required, solutions were preheated to aid in dissolution of surfactants. Once the various components had been dissolved into solution, final oil-in-water emulsion composition were blended using high shear mixing (Polytron, Brinkmann Instruments). For solutions containing monomeric surfactants, solutions were subjected to high shear mixing for 5 minutes, while solutions containing polymeric surfactants were subjected to high shear mixing for 15 minutes. Once blending was completed, samples were assessed for quality of emulsification and then placed at 50° C. for up to 70 days, with additional assessments occurring at different time points throughout the storage period. Quality of emulsification was assessed using the method described below. Samples were placed at 50° C. to accelerate storage stability testing, as 4 weeks at 50° C. is representative of 2 years at ambient temperature (CIPAC MT 46.3). The following method was used to evaluate the tested emulsions. The method was performed using a 100 mL graduated cylinder and a pipette (capable of measuring at least 1 mL). The oil-in-water emulsion compositions evaluated in this example were tested as follows: • 1. If ready-to-use spray oil solutions were under storage conditions (e.g., storage for two weeks at 54° C.), the solution was shaken to allow the contents to re-emulsify. • 2. A graduated cylinder was filled with 100 mL of an oil-in-water emulsion composition, and the amount was adjusted as necessary using a pipette. The test solution was allowed to sit for 15 minutes to permit the emulsion to break and to let the majority of the foam generated in step 1 (FIG. 1A) to disappear before moving to step 3. […] The foam should be allowed to settle before inverting cylinders. Even with inversion of cylinders (vs. shaking), some foaming can occur (FIG. 1(B)). • 3. A stopper was placed on the graduated cylinder and the graduated cylinder was inverted 10 times. It was important to invert and not shake the cylinder to prevent excess foaming. • 4. […] Rating were based on the following scale (1-10). […] Specifically, FIG. 2 is an example of an oil-in-water emulsion composition with a rating of 10 (best) at five minutes after inversion. The solution is a homogeneous, milky emulsion (left) and lacks an oil layer or creaming on the surface (right). […] The solution is a homogeneous, milky emulsion (left), but with creaming and some oil coalescence on surface (right). Finally, FIG. 4 is an example of an oil-in-water emulsion composition with a rating of 1 (worst) at five minutes after inversion. The solution has a cloudy appearance, lacks a homogeneous, milky emulsion (left), and has a layer of large, coalesced oil deposits at the surface of the solution (right). The figures were used in the examples described herein as a reference only.

[1] = Base oil Group III, Alcohol ethoxylate/alkyl glyceride, 70 days of storage (50° C.), 10 = best, 1 = worst

Structure (SMILES): O=C(O)c1ccccc1 [Benzoic acid, benzoic acid]
- Emulsion Rating (1-10) (Base oil Group I, Alcohol ethoxylate/alkyl glyceride, 70 days of storage (50° C.)): 6
- Emulsion Rating (1-10) (Base oil Group II, Alcohol ethoxylate/alkyl glyceride, 70 days of storage (50° C.)): 7
- Emulsion Rating (1-10) [1]: 7
- Emulsion Rating (1-10) (Base oil Group III, Alkyl polysaccharide, 27 days of storage (50° C.)): 8
- Emulsion Rating (1-10) (Base oil Group III, Block copolymer, 27 days of storage (50° C.)): 8
- Emulsion Rating (1-10) (Base oil Group III, Polyoxyethylene amine quarternary/alkyl glyceride, 27 days of storage (50° C.)): 4
- Emulsion Rating (1-10) (Base oil Group III, Random polymeric/Block copolymer, 64 days of storage (50° C.)): 5
- Emulsion Rating (1-10) (Base oil Group IV, Alcohol ethoxylate/alkyl glyceride, 70 days of storage (50° C.)): 6
- re-emulsification compared with composition with no biocide: improved re-emulsification
- effect on re-emulsification, single surfactant (alcohol ethoxylate, amine alkybenzenesulfonate (anionic), polyoxyethylene amine quarternary (cationic) or polyethylene glycol): no impact
- effect on re-emulsification, single surfactant (alkyl glyceride, random polymeric, sorbitan monooleate, sorbitan fatty acid ester, or dodecyl phenol): negatively affected
- effect on re-emulsification, single surfactant (block copolymer or alkyl polysaccharide surfactant): improved re-emulsification
- effect on re-emulsification, surfactant pairs (dodecyl phenol + alcohol ethoxylate, alcohol ethoxylate + amine alkylbenzenesulfonate (anionic), sorbitan monooleate + polyoxyethylene (20) sorbitan monooleate): no impact
- re-emulsification compared with compositions without benzoic acid (group I, group II, group III, and group IV (poly-alpha-olefins) base oils): improved re-emulsification
- effect on re-emulsification, surfactant pairs (polyethylene glycol monostearate + alkyl glyceride, alkyl polysaccharide + alkyl glyceride): negatively affected
- effect on re-emulsification, surfactant pairs (random polymeric + block copolymer (64 days), polyoxyethylene amine quarternary + alkyl glyceride (27 days), alcohol ethoxylate + alkyl glyceride (70 days), 50° C.): improved re-emulsification

- Emulsion Rating (1-10) [1]: 5
Structure (SMILES): COC(=O)c1ccc(O)cc1 [Methyl paraben, methyl paraben]
- re-emulsification compared with composition with no biocide: improved re-emulsification

- Emulsion Rating (1-10) [1]: 5
Structure (SMILES): CCCOC(=O)c1ccc(O)cc1 [Propyl paraben, propyl paraben]
- re-emulsification compared with composition with no biocide: improved re-emulsification

Structure (SMILES): O=C([O-])c1ccccc1.[Na+] [Sodium benzoate, sodium benzoate]
- Emulsion Rating (1-10) [1]: 6
- re-emulsification compared with composition with no biocide: improved re-emulsification

Structure (SMILES): C/C=C/C=C/C(=O)O [sorbic acid, reference compound]
- re-emulsification compared with composition with no biocide: comparable or worse emulsification quality
